Experimental data: US11986477B2, “Drug combination and use for treating tumors” (INXMED (NANJING) CO., LTD., priority 2022, dated 2024)
Values joined by “and” are separate entries in the source; they are usually repeats but may differ in a detail not shown here. Identical values can stand only once.

Columns and labels:
[1] = system: human non-small cell lung cancer HCC827 cells; assay: In vivo antitumor efficacy, BALB/c-nude mouse subcutaneous xenograft tumor model of HCC827 cells; settings: for tumor growth inhibition compared with the blank control group / TGI / Tumor volume on day 32 / Tumor volume on day 37: AZD9291 3 mg/kg, IN10018 25 mg/kg, combination 3+25 mg/kg; for tumor growth inhibition compared with the blank control group: statistical difference from control; for Tumor volume on day 0: baseline at grouping, n=5; for Tumor volume on day 0 / Tumor volume on day 32 / Tumor volume on day 37: mean ± SD; for TGI: day 32, vs control group; for TGI / Tumor volume on day 32 / Tumor volume on day 37: PO QD; for Tumor volume on day 32: day 32 after administration by groups; for Tumor volume on day 37: day 37 after administration by groups
Experimental: 5% CO2 incubator. The cells were passaged by routine digestion with trypsin-EDTA two to three times a week. When the cells were in the exponential growth phase with 80%-90% saturation, the cells were harvested, counted and inoculated. 0.1 mL of a cell suspension containing 5×10^6 cells was inoculated subcutaneously into the right back of each mouse.
The experiment criteria was to investigate whether the tumor growth was inhibited, delayed or cured. Tumor diameter was measured three times a week using vernier calipers. Tumor volume was calculated according to the following formula: V=0.5×a×b^2, where a and b indicated the long diameter and short diameter of the tumor, respectively.
The tumor suppressive efficacy of the compounds was evaluated by TGI (%), which reflects the tumor growth inhibition rate.
Statistical analysis was performed based on tumor volume at the end of the trial using Prism Graphpad software. Comparisons among multiple groups were analyzed using Two-way ANOVA, Fisher's LSD test method, and P<0.05 was considered a significant difference. Comparisons between the two groups were analyzed using the t-test, Mann Whitney test method test, and P<0.05 was considered a significant difference.

[2] = system: mouse colon cancer CT-26 cells; assay: In vivo antitumor efficacy, subcutaneous allograft tumor model of colon cancer CT-26 cells in BALB/c mice; settings: for Tumor volume on day 0: baseline at grouping, mean ± standard error, n=6; for TGI: day 15, vs control group; for TGI / Tumor volume on day 15: IN10018 25 mg/kg, combination 20+25 mg/kg, p.o. QD; for Tumor volume on day 15: day 15 after administration by groups
Experimental: […] incubator. The cells were passaged by routine digestion with trypsin-EDTA two to three times a week. When the cells were in the exponential growth phase with […] saturation, the cells were harvested, counted and inoculated.
0.1 mL of a cell suspension containing 3×10^5 cells was inoculated subcutaneously into the right back of each mouse. When the tumor volume reached ˜59 mm^3 (on day 12 after cell inoculation), the mice were randomized into groups for administration according to the tumor volume, and the grouping information is shown in Table 2.
The tumor diameter was measured with a vernier caliper three times a week. The tumor volume was calculated by the formula: V=0.5×a×b^2, where a and b indicated the long and short diameter of the tumor, respectively.
Statistical analysis was performed based on tumor volume and tumor weight at the end of the trial using Prism Graphpad software. Comparisons among multiple groups were analyzed using Two-way ANOVA, Fisher's LSD test method. P<0.05 was considered a significant difference.

lung cancer KPL cells = assay: Lung cancer KPL cells incubated with drug for 48 hours, observed under microscope; assay type: cell-based; settings: 48 h incubation; IN10018 10 μM, AZD9291 10 μM, Almonertinib 4.7 μM, Alflutinib 4.7 μM, single or combined
[3] = Body weight and survival of HCC827 tumor-bearing BALB/c-nude mice during dosing; assay type: in vivo
Experimental: The use and welfare of laboratory animals were in accordance with the AAALAC regulations. Animals were monitored daily for health and death. Routine examinations included observation of tumor growth and the effects of drug treatment on the animals' daily behavior such as behavioral activities, food and water intake (visual inspection only), weight changes, appearance signs or other abnormalities. Animal deaths and side effects in each group were recorded based on the number of animals in each group.
The assay was carried out according to the dosing regimen, during which the animals were observed daily for feeding and drinking, and their body weights were recorded three times a week.

| SMILES | tumor growth inhibition compared with the blank control group [1] | Tumor volume on day 0 [1] | TGI [1] | Tumor volume on day 32 [1] | Tumor volume on day 37 [1] | tumor growth inhibition compared with the blank control group ([2]; AZD9291 20 mg/kg, AZD9291+IN10018 20+25 mg/kg, statistical difference from control) | Tumor volume on day 0 [2] | TGI ([2]; AZD9291 20 mg/kg) | Tumor volume on day 15 ([2]; AZD9291 20 mg/kg) | cell status observed under microscope (lung cancer KPL cells) | Body weight on day 0 ([3]; baseline, day of administration by groups, mean ± SD) | Body weight on day 37 ([3]; day 37, AZD9291 3 mg/kg, IN10018 25 mg/kg, combination 3+25 mg/kg PO QD, mean ± SD) | Rate of change in body weight ([3]; day 37 vs day 0, AZD9291 3 mg/kg, IN10018 25 mg/kg, combination 3+25 mg/kg) | Animal Survival ([3]; number of animals surviving on day 0/after administration, AZD9291 3 mg/kg, IN10018 25 mg/kg, combination 3+25 mg/kg) |
| --- | --- | --- | --- | --- | --- | --- | --- | --- | --- | --- | --- | --- | --- | --- |
| C=CC(=O)Nc1cc(Nc2nccc(-c3cn(C)c4ccccc34)n2)c(OC)cc1N(C)CCN(C)C [AZD9291, Osimertinib] | obvious tumor growth inhibition | 148.6 ± 59.6 mm^3 | 107.7% | 20.3±4.7 mm^3 | 17.0±6.7 mm^3 | obvious tumor growth inhibition | 37.9 ± 12.9 mm^3 | 33.2% | 1046.3±407.8 mm^3 | poor cell status | 19.9 g and 19.9 ± 0.9 g | 19.4 g and 19.4 ± 1.4 g | −2.2% | 5/5 |
| C=CC(=O)Nc1cc(Nc2nccc(-c3cn(C4CC4)c4ccccc34)n2)c(OC)cc1N(C)CCN(C)C [Almonertinib] | – | – | – | – | – | – | – | – | – | poor cell status | – | – | – | – |
| C=CC(=O)Nc1cc(Nc2nccc(-c3cn(C)c4ccccc34)n2)c(OCC(F)(F)F)nc1N(C)CCN(C)C [Alflutinib] | – | – | – | – | – | – | – | – | – | poor cell status | – | – | – | – |
| COc1cc(C(=O)NC2CCN(C)CC2)c(F)cc1Nc1ncc(C(F)(F)F)c(Oc2cccc3c2C(=O)N(C)C3)n1 [IN10018] | obvious tumor growth inhibition | 147.7 ± 56.3 mm^3 | 104.1% | 79.2±51.8 mm^3 | 69.6±46.6 mm^3 | – | 39.2 ± 17.9 mm^3 | −14.5% | 1766.9±732.5 mm^3 | better cell status | – | – | – | – |
